{"source": "ChEMBL document CHEMBL1201862", "about": "“PubChem BioAssay data set” (2004)", "assay_in_all_cases": "NCI tumour cell line growth inhibition, 48 h", "key": {"[1]": {"test_system": "MOLT-4"}, "[2]": {"test_system": "OVCAR-4"}, "[3]": {"test_system": "HOP-18"}, "[4]": {"test_system": "NCI-H226"}, "[5]": {"test_system": "SNB-19"}, "[6]": {"test_system": "HOP-62"}, "[7]": {"test_system": "CCRF-CEM"}, "[8]": {"test_system": "UACC-62"}, "[9]": {"test_system": "SK-MEL-28"}, "[10]": {"test_system": "SF-539"}, "[11]": {"test_system": "DLD-1"}, "[12]": {"test_system": "786-0"}, "[13]": {"test_system": "KM12"}, "[14]": {"test_system": "COLO 205"}, "[15]": {"test_system": "Malme-3M"}, "[16]": {"test_system": "HCT-15"}, "[17]": {"test_system": "SW-620"}, "[18]": {"test_system": "UO-31"}, "[19]": {"test_system": "HL-60"}, "[20]": {"test_system": "U-251"}, "[21]": {"test_system": "TK-10"}, "[22]": {"test_system": "RXF 631"}, "[23]": {"test_system": "SK-MEL-2"}, "[24]": {"test_system": "SN12C"}, "[25]": {"test_system": "K562"}, "[26]": {"test_system": "NCI-H460"}, "[27]": {"test_system": "OVCAR-8"}, "[28]": {"test_system": "SNB-75"}, "[29]": {"test_system": "CAKI-1"}, "[30]": {"test_system": "ACHN"}, "[31]": {"test_system": "NCI-H522"}, "[32]": {"test_system": "UACC-257"}, "[33]": {"test_system": "SNB-78"}, "[34]": {"test_system": "SK-OV-3"}, "[35]": {"test_system": "DMS-114"}, "[36]": {"test_system": "M14"}, "[37]": {"test_system": "HCC 2998"}, "[38]": {"test_system": "M19-MEL"}, "[39]": {"test_system": "A549"}, "[40]": {"test_system": "KM-20L2"}, "[41]": {"test_system": "IGROV-1"}, "[42]": {"test_system": "LXFL 529"}, "[43]": {"test_system": "SK-MEL-5"}, "[44]": {"test_system": "OVCAR-3"}, "[45]": {"test_system": "DMS-273"}, "[46]": {"test_system": "SF-268"}, "[47]": {"test_system": "RPMI-8226"}, "[48]": {"test_system": "A498"}, "[49]": {"test_system": "SR"}, "[50]": {"test_system": "RXF 393"}, "[51]": {"test_system": "HCT-116"}}, "note": "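96-well plates; 48 h exposure; 5 concentrations. Endpoints by linear interpolation between flanking doses. Not reached: highest tested concentration assigned. At the GI50, growth is halved.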 Activity calls are given as the source filed them. Rule as the data show it: active = GI50 up to about 1.1 µM and inactive = higher."}
{"smiles": "Cc1ccc(S(=O)(=O)NC2(C=O)CCCC3CCCCC32)cc1", "note": "(stereo unspecified)", "values": [{"measurement": "GI50", "setting": "[1]", "value": "> 100 µM (inactive)"}, {"measurement": "GI50", "setting": "[2]", "value": "> 100 µM (inactive)"}, {"measurement": "GI50", "setting": "[3]", "value": "> 100 µM (inactive)"}, {"measurement": "GI50", "setting": "[4]", "value": "> 100 µM (inactive)"}, {"measurement": "GI50", "setting": "[5]", "value": "> 100 µM (inactive)"}, {"measurement": "GI50", "setting": "[6]", "value": "> 100 µM (inactive)"}, {"measurement": "GI50", "setting": "[7]", "value": "> 100 µM (inactive)"}, {"measurement": "GI50", "setting": "[8]", "value": "> 100 µM (inactive)"}, {"measurement": "GI50", "setting": "[9]", "value": "> 100 µM (inactive)"}, {"measurement": "GI50", "setting": "[10]", "value": "> 100 µM (inactive)"}, {"measurement": "GI50", "setting": "[11]", "value": "> 100 µM (inactive)"}, {"measurement": "GI50", "setting": "[12]", "value": "> 100 µM (inactive)"}, {"measurement": "GI50", "setting": "[13]", "value": "> 100 µM (inactive)"}, {"measurement": "GI50", "setting": "[14]", "value": "> 100 µM (inactive)"}, {"measurement": "GI50", "setting": "[15]", "value": "> 100 µM (inactive)"}, {"measurement": "GI50", "setting": "[16]", "value": "> 100", "unit": "µM"}, {"measurement": "GI50", "setting": "[17]", "value": "> 100 µM (inactive)"}, {"measurement": "GI50", "setting": "[18]", "value": "> 100 µM (inactive)"}, {"measurement": "GI50", "setting": "[19]", "value": "> 100 µM (inactive)"}, {"measurement": "GI50", "setting": "[20]", "value": "> 100 µM (inactive)"}, {"measurement": "GI50", "setting": "[21]", "value": "> 100 µM (inactive)"}, {"measurement": "GI50", "setting": "[22]", "value": "> 100 µM (inactive)"}, {"measurement": "GI50", "setting": "[23]", "value": "> 100 µM (inactive)"}, {"measurement": "GI50", "setting": "[24]", "value": "> 100 µM (inactive)"}, {"measurement": "GI50", "setting": "[25]", "value": "> 100 µM (inactive)"}, {"measurement": "GI50", "setting": "[26]", "value": "> 100 µM (inactive)"}, {"measurement": "GI50", "setting": "[27]", "value": "> 100 µM (inactive)"}, {"measurement": "GI50", "setting": "[28]", "value": "> 100 µM (inactive)"}, {"measurement": "GI50", "setting": "[29]", "value": "> 100 µM (inactive)"}, {"measurement": "GI50", "setting": "[30]", "value": "> 100 µM (inactive)"}, {"measurement": "GI50", "setting": "[31]", "value": "> 100 µM (inactive)"}, {"measurement": "GI50", "setting": "[32]", "value": "> 100 µM (inactive)"}, {"measurement": "GI50", "setting": "[33]", "value": "> 100 µM (inactive)"}, {"measurement": "GI50", "setting": "[34]", "value": "> 100 µM (inactive)"}, {"measurement": "GI50", "setting": "[35]", "value": "> 100 µM (inactive)"}, {"measurement": "GI50", "setting": "[36]", "value": "> 100 µM (inactive)"}, {"measurement": "GI50", "setting": "[37]", "value": "> 100 µM (inactive)"}, {"measurement": "GI50", "setting": "[38]", "value": "> 100 µM (inactive)"}, {"measurement": "GI50", "setting": "[39]", "value": "> 100 µM (inactive)"}, {"measurement": "GI50", "setting": "[40]", "value": "> 100 µM (inactive)"}, {"measurement": "GI50", "setting": "[41]", "value": "> 100 µM (inactive)"}, {"measurement": "GI50", "setting": "[42]", "value": "> 100 µM (inactive)"}, {"measurement": "GI50", "setting": "[43]", "value": "> 100 µM (inactive)"}, {"measurement": "GI50", "setting": "[44]", "value": "> 100 µM (inactive)"}, {"measurement": "GI50", "setting": "[45]", "value": "> 100 µM (inactive)"}, {"measurement": "GI50", "setting": "[46]", "value": "> 100 µM (inactive)"}, {"measurement": "GI50", "setting": "[47]", "value": "> 100 µM (inactive)"}, {"measurement": "GI50", "setting": "[48]", "value": "> 100 µM (inactive)"}, {"measurement": "GI50", "setting": "[49]", "value": "> 100 µM (inactive)"}, {"measurement": "GI50", "setting": "[50]", "value": "> 100 µM (inactive)"}, {"measurement": "GI50", "setting": "[51]", "value": "> 100 µM (inactive)"}]}
